According to publication PMC7661967, “Magnetic Resonance Molecular Imaging of Extradomain B Fibronectin Improves Imaging of Pancreatic Cancer Tumor Xenografts” (Frontiers in Oncology, 2020):
Where “and” joins values, the source holds several entries; their conditions need not be identical. Equal values may be shown once. Entries after “also recorded” stand apart in the source; their conditions may differ. No end group written: not given here.

Tests used:
[1] = target: T1, EDB fragment of FN (Homo sapiens, UniProt P02751); test: Microscale thermophoresis binding affinity; conditions: MST
T1 construct: The EDB fragment of FN was expressed in E. coli; made in house; host or cells: E. coli
T1 sequence (P02751 1271-1359 limits assumed): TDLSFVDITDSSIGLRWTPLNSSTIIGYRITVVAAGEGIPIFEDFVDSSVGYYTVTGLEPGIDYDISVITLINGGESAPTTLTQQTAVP
Protocol: The binding affinity of MT218 was determined with microscale thermophoresis (MST) using a Nanotemper Monolith NT.115 instrument (NanoTemper Technologies, Munich, Germany). The EDB fragment of FN was expressed in E. coli, purified, and labeled with amine-reactive dye NT-647. MT218 was dissolved into assay buffer (50 mM PBS w/0.05% Tween-20). This solution was further diluted using assay buffer to give a series of MT218 working solutions. Each MT218 working solution was then mixed with a fixed concentration of fluorescently labeled EDB fragment. The mixtures of MT218 and EDB were then loaded into standard capillaries, and MST measurements were performed at 25°C using 20–80% light-emitting diode power and 40% infrared-laser power at varying concentrations of MT218.

[2] = test system: Capan-1 flank tumor xenografts; test: MRMI of Capan-1 flank tumor xenografts (7T); assay type: in vivo, human cells in female nu/nu mice
Protocol: (§1) For flank xenograft models, 4 × 10^6 Capan-1 cells suspended in 100 μL of a 6 mg/mL Matrigel (Corning, Corning, NY) solution was injected subcutaneously into the flank of 8-week-old female nu/nu mice. The tumor bearing mice were imaged after tumor volumes exceeded 300 mm^3. For orthotopic intrapancreatic models, the pancreas of 4-week-old female nu/nu mice were surgically exposed via a ~10 mm incision in the left ventral abdomen and the application of gentle pressure to express the spleen and associated pancreatic tissue. 1 × 10^6 BxPC3-GFP-Luc or PANC-1-GFP-Luc cells suspended in 100 μL of a Matrigel solution (6 mg/mL) was injected into the pancreatic tissue using an insulin syringe with a 31G needle. Any leakage of cell suspension was lavaged with DPBS twice to prevent intraabdominal seeding PaCa cells. The peritoneal fascia was closed with absorbable stitches, and the dermis closed with stainless steel wound clips. Prior to imaging, growth of tumor was verified by bioluminescence imaging with intraperitoneal injection of d-luciferin on IVIS Spectrum system (Perkin Elmer, Waltham, MA).
Flank tumor-bearing mice were anesthetized and a tail vein catheter inserted. MR image acquisition was performed on a 7T Biospin (Bruker, Billerica, MA) preclinical small animal scanner with a volume radiofrequency coil. Axial images were obtained using a multi-spin multi-echo (MSME) MRI sequence (500 ms TR, 8.1 ms TE, 90° FA, 4.50 cm × 4.50 cm FOV, 1.50 mm slice thickness, 16 slices, 2 averages, 200 × 200 matrix, 0.0225 × 0.0225 cm/pixel resolution). Contrast agents were injected at a dose of 0.1 mmol/kg (100 μL) via the tail vein catheter, followed by a saline flush. Images of the tumors were acquired before contrast and at various time points after contrast administration. Gd(HP-DO3A) was used as a control.
(§2) Image files were exported and analyzed in Horus software. ROIs were drawn in the tumor, liver, kidney, and muscle. Muscle ROIs were taken from the muscle, with other structures (liver, kidney, tumor) identified after comparison with published images and comparison with anatomical landmarks or bioluminescent imaging. Pancreatic lesions were localized using the liver, kidney, and spleen as anatomical landmarks. […] Size of ROIs drawn for image analysis are summarized in Supplementary Table 1. The contrast-to-noise ratio of the tumor (CNR) was calculated using the following equation, where σnoise is the standard deviation of intensities from an ROI drawn outside of the mouse body:
(§3) CNR=Mean IntensityTumor-Mean IntensityMuscle/σnoise.
(§4) Image subtraction was performed on images adjusted to the same window and level in FIJI open-source software.
(§5) Image contrast was reported as fold enhancement of contrast to noise ratio of post-contrast images over pre-contrast images using Fold Enhancement = CNRpost/CNRpre. Statistical analysis of CNR was performed in Minitab Express (Minitab Inc., State College, PA). One-way ANOVA with Fisher Individual Tests for Differences of Means post-hoc testing was performed to determine statistical significance between >2 means (p < 0.05). Student's T test was used to determine statistical significance between 2 means (p < 0.05).

[3] = test system: BxPC3-GFP-Luc intrapancreatic tumor xenografts; test: MRMI of BxPC3-GFP-Luc intrapancreatic tumor xenografts (3T); assay type: in vivo, human cells in female nu/nu mice
Protocol: as §1
(§6) Mice bearing intrapancreatic tumors were anesthetized and a tail vein catheter was inserted. Image acquisition was performed on a MR Solutions 3T MRS 3000 scanner with a mouse radiofrequency coil. Axial images were obtained using a Fast Spin Echo (FSE) MRI sequence (305 ms TR, 11 ms TE, 90° FA, 4 cm × 4 cm FOV, 1 mm slice thickness, 10 slices, echo train length = 4, echo spacing = 11 ms, 4 averages, 256 × 256 matrix, 0.0156 × […] cm/pixel resolution) with respiratory gating. Images were acquired before contrast and at different time points after contrast injection at a dose of 0.1 mmol/kg (100 μL). For competitive binding experiments, a 5:1 molar ratio of free ZD2 peptide to MT218 was injected in mice bearing intrapancreatic BxPC3 tumor xenografts (n = 3) at a dose of 0.1 mmol MT218/kg (100 μL). Images obtained on the MR Solutions 3T scanner were normalized using the Surscalereader.exe (MR Solutions, Guildford, UK) program supplied.
as §2, §3, §4, §5

[4] = test system: PANC-1-GFP-Luc intrapancreatic tumor xenografts; test: MRMI of PANC-1-GFP-Luc intrapancreatic tumor xenografts (3T); assay type: in vivo, human cells in female nu/nu mice
Protocol: as §1, §6, §2, §3, §4, §5

[5] = 0.1 mmol/kg, 10 min post-injection, n = 3
[6] = 0.1 mmol/kg, 10 min post-injection, n = 6

Substance: ZD2-N3-Gd(HP-DO3A) (TVRTSAD; also: conjugated via N3 to Gd(HP-DO3A) contrast agent, end not given here) [MT218, small molecular conjugate of ZD2 peptide to a macrocyclic clinical MRI contrast agent Gd(HP-DO3A)]
- binding affinity (in words) ([1]; MT218 to EDB-FN): micromolar affinity; also recorded: moderate binding affinity
- Kd ([1]; NT-647-labeled EDB fragment, 50 mM PBS w/0.05% Tween-20, 25°C): 3.2 ± 0.2 µM
- contrast enhancement in tumor periphery ([2]; 0.1 mmol/kg, 5 min post-injection, MT218 vs Gd(HP-DO3A)): Stronger contrast enhancement
- maximum increase of tumor CNR (post/pre) ([2]; 0.1 mmol/kg, 15 min post-injection, MT218 n = 7): 4.8 fold
- contrast enhancement in tumor core ([2]; 0.1 mmol/kg, after injection): gradually increased
- enhancement in tumor periphery, subtraction images ([2]; 0.1 mmol/kg, early time points (5–15 min post-contrast)): strong initial enhancement
- contrast enhancement throughout tumors, subtraction images ([2]; 0.1 mmol/kg, later time points (25–35 min) for MT218, all time points for Gd(HP-DO3A)): robust tumor contrast enhancement throughout the tumors
- duration for which CNR increase maintained ([2]; 0.1 mmol/kg, post-injection): at least 35 min
- MT218 CNR relative to Gd(HP-DO3A) control ([2]; Capan-1 flank, control Gd(HP-DO3A), p < 0.05): 273%
- CNR relative to clinical agent ([2]; Capan-1 flank, vs Gd(HP-DO3A), p < 0.05): 2.7 times
- tumor CNR increase (post/pre) ([3]; 0.1 mmol/kg, 10 min post-injection (maximum for MT218), n = 3): 5.3 fold
- tumor contrast enhancement [3, 5]: strong contrast enhancement
- tumor enhancement, subtraction images [3, 5]: strong enhancement and clear delineation
- tumor contrast enhancement ([3]; 0.1 mmol/kg, 20 min post-injection, n = 3): decreased
- tumor contrast enhancement ([3]; 0.1 mmol/kg, 30 min post-injection, n = 3): returned to background levels
- MT218 CNR relative to control ([3]; BxPC3-GFP-Luc intrapancreatic, control Gd(HP-DO3A), p < 0.05): 212%
- CNR relative to clinical agent ([3]; BxPC3-GFP-Luc intrapancreatic, vs Gd(HP-DO3A), p < 0.05): 2.1 times
- CNR increase ([3]; MT218 0.1 mmol/kg co-injected with 5-fold excess free ZD2 peptide, n = 3): approximately 2.5 fold
- contrast enhancement, competitive binding experiment ([3]; MT218 0.1 mmol/kg co-injected with 5-fold excess free ZD2 peptide, vs MT218 alone, n = 3): significant reduction of contrast enhancement
- CNR with free ZD2 peptide compared with MT218 alone ([3]; MT218 co-injected with 5-fold free ZD2 peptide, n = 3, p < 0.05): significant decrease in tumor CNR; also recorded: significantly lower
- size of smallest tumor detected / better visualized ([3]; smallest average size / area of tumor nodules, cf. BxPC3 + MT218 ROI in Supplementary Table 1): 6.1 mm^2 and 6.13 mm^2
- intratumoral CNR increase (post/pre) [4, 6]: approximately 3.9 fold
- tumor contrast enhancement [4, 6]: substantial contrast enhancement
- tumor signal enhancement, subtraction images [4, 6]: substantial signal enhancement
- MT218 CNR as percent of Gd(HP-DO3A) control ([4]; PANC-1-GFP-Luc intrapancreatic, control Gd(HP-DO3A), p < 0.05): 164%
- CNR relative to clinical agent ([4]; PANC-1-GFP-Luc intrapancreatic, vs Gd(HP-DO3A), p < 0.05): 1.6 times
